Experimental data as given in PubChem BioAssay AID493119 (Broad Institute, 2011).
Several values for one entry are separate records, joined by “and”; a condition that tells them apart may be missing. Equal values may be shown once.

Tested on: V. harveyi MM32 (LuxS-), AI-2-induced luminescence, 5 h
Assay: AI-2 driven bioluminescence decrease, LuxPQ pathway – strain MM32 LuxS-null, luminescence, dry powder, set 2, mechanism study for V. harveyi quorum sensing inhibitors, dose response (AID 493119)

Structure (SMILES) | AC50
COc1cc(NC(=O)CN2C(=O)NC(c3ccccc3)(c3ccccc3)C2=O)cc(OC)c1 | 1.17 µM and 1.13 µM
Cc1cccc(NC(=O)c2ccc(Oc3ccccc3)cc2)n1 | 6.55 µM
C=Cn1c(C(=O)O)ccc1-c1ccc(CC)cc1 | 1.72 µM and 1.57 µM
Cc1cccc(NS(=O)(=O)c2ccc(Oc3ccccc3)cc2)n1 | 1.29 µM and 1.61 µM
CCc1ccc(S(=O)(=O)Nc2ccc(Br)cn2)cc1 | 2 µM
Cn1cnc(S(=O)(=O)Nc2ccc(OC(F)(F)F)cc2)c1 | 1.88 µM and 2.29 µM
O=C1C=C/C(=C/Br)O1 | 3.97 µM
